These results are taken from patent publication US4411900A, “Benzhydrylpiperozinyl thiazole derivatives and pharmaceutical composition comprising the same” (Fujisawa Pharmaceutical Co., Ltd., priority 1980, dated 1983).

The test system of this experiment is anaphylactic asthma in guinea-pigs. The experiment in a line: Antagonism to anaphylactic asthma in guinea-pigs (inhibitory effect from number of surviving animals). Format: in vivo, guinea-pig (male Hartley strain). To be noted: oral, 30 minutes before egg albumin challenge, survival more than 2 hours after antigen spray, *Dose group: 5 guineapigs (compound D). The protocol:
Equal volumes of a saline solution of egg albumin (200 mg/ml) and of Freund's Complete Ajuvant were mixed and emulsified. Each male New Zealand white strain rabbits, each weighing 2 to 2.5 kg., received an intramuscular injection of 0.5 ml of the emulsion in the left and right thigh regions. One week later, they received an intradermal injection of 0.25 ml of a saline solution of egg albumin (concentration: 20 mg/ml) in the different four sites of the dorsal skin surface three times every other week. Blood samples were collected from the carotid artery one week after the last injection.
The level of anaphylactic anti-egg albumin antibodies in pools of sera were determined by passive cutaneous anaphylaxis (PCA) reactions using shaven Hartley strain test guinea-pigs.
Antiserum was serially diluted (two fold) in saline and 0.1 ml of each antiserum dilution were injected intradermally into the dorsal skin surface of the test guinea-pigs. 24 hours after intradermal sensitization,Egg albumin-specific PCA reactions were elicited by intravenous injection of 10 mg of egg albumin in 1 ml of 1% Evans blue dye dissolved in saline. Reactions were read and recorded as the highest dilution of serum evoking threshold PCA reactivity (5 mm diameter).
Male Hartley strain guinea-pigs, weighing 305 to 400 g, were used. Animals were sensitized by an intravenous injection of rabbit antiserum against egg albumin (4000 PCA titer) with 0.5 ml/animal. After 24 hours, animals were placed individually in a plastic chamber of 5.3 liter volume. An aerosol of 5% egg albumin solution was sprayed in the chamber at a rate of 0.16 ml/min with a commercial nebulizer. The test compounds were given to the animals orally 30 minutes before the challenge with the egg albumin solution. Each dose group consisted of 3 or 5 animals. The inhibitory effect of the test compounds was determined from the number of surviving animals more than 2 hours after spray of the antigen.

Each structure is given as a SMILES string.

Turning to `CCS(=O)(=O)Nc1nc(CN2CCN(C(c3ccccc3)c3ccccc3)CC2)cs1` [Compound B, 4-(4-Benzhydrylpiperazin-1-ylmethyl)-2-ethanesulfonamidothiazole], the “Inhibitory Effect” value runs as follows: (Dose 1 mg/kg) 67%; (Dose 10 mg/kg) 100%.

Regarding `CC(=O)Nc1nc(CCCN2CCN(C(c3ccccc3)c3ccccc3)CC2)cs1` [Compound D, 4-[3-(4-Benzhydrylpiperazin-1-yl)-propyl]-2-acetamidothiazole], the “Inhibitory Effect” value was found to be 40% (Dose 1 mg/kg) and 100% (Dose 10 mg/kg).

Consider `CS(=O)(=O)Nc1nc(CN2CCN(C(c3ccccc3)c3ccccc3)CC2)cs1` [Compound A, 4-(4-Benzhydrylpiperazin-1-ylmethyl)-2-methanesulfonamidothiazole], for which the “Inhibitory Effect” value is reported as 100% (Dose 1 mg/kg) and 100% (Dose 10 mg/kg).

As to `CCCS(=O)(=O)Nc1nc(CN2CCN(C(c3ccccc3)c3ccccc3)CC2)cs1` [Compound C, 4-(4-Benzhydrylpiperazin-1-ylmethyl)-2-propanesulfonamidothiazole], the “Inhibitory Effect” value by setting is: (Dose 1 mg/kg) 100%; (Dose 10 mg/kg) 100%.
